For 15 compounds, Ki results are on record in US9611251B2, “Substituted piperidine compounds and their use as orexin receptor modulators” (Janssen Pharmaceutica NV, priority 2013, dated 2017).

A value given as a limit tells only on which side of the number the result lay.

The target in one assay is human orexin 2 receptor (Homo sapiens (Human), UniProt O43614). In words: Human orexin 2 receptor radioligand binding ([3H]-EMPA). As to conditions: averages of 2-20 runs, read-out: hOX2 Ki. Put shortly: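 Competition binding using homogenized HEK293 cells stably expressing human orexin 2 receptor, [3H]-EMPA at 2 nM final and ≤0.1% DMSO; nonspecific binding set with 10 μM almorexant. Filter-bound radioactivity counted by scintillation; one-site competition IC50 converted to Ki using pre-determined Kd, compounds run in triplicate.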

A further assay deals with rat orexin 1 receptor (Rattus norvegicus, UniProt P56718). In words: Rat orexin 1 receptor radioligand binding. The settings on record: rat orexin 1 receptor radioligand binding; averages of 2-20 runs; read-out: rOX1 Ki. Put shortly: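 Cell-suspension competition binding used 4 nM final tritiated thiazolyl-pyrrolidinyl-methanone radioligand in PBS, ≤0.1% DMSO, with 10 µM almorexant defining nonspecific binding. Filter-bound radioactivity was counted in triplicate. IC50 came from one-site competition fits and was converted to Ki using the predetermined Kd.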

A further assay deals with human orexin 1 receptor (Homo sapiens, UniProt O43613). In words: Human orexin 1 receptor radioligand binding. The settings on record: human orexin 1 receptor radioligand binding; averages of 2-20 runs; read-out: hOX1 Ki. On the procedure:
The in vitro affinity of the compounds of the invention for the rat/human orexin 1 and human orexin 2 receptors was determined by competitive radioligand binding using [^3H](1-(5-(2-fluoro-phenyl)-2-methyl-thiazol-4-yl)-1-((S)-2-(5-phenyl-(1,3,4)oxadiazol-2-ylmethyl)-pyrrolidin-1-yl)-methanone) (Langmead et al., 2004) and [^3H]EMPA (n-ethyl-2[96-methoxypyridin-3-yl)-(toluene-2-sulfonyl)-amino]-N-pyridin-3-ylmethyl acetamide), respectively (Langmead et al., 2004, British Journal of Pharmacology 141:340-346; Malherbe et al., 2004, British Journal of Pharmacology 156:1326-41).
Data are analyzed using pc-Sandy macro and graphed on Graphpad Prism 5. For analysis, each concentration point is averaged from triplicate values and the averaged values are plotted on Graphpad Prism. The IC50 was determined by applying the following equation (GraphPad Prism 5.0, SanDiego) for one site competition where X=log (concentration) and Y=specific binding. Top denotes the total [^3H]-(1-(5-(2-fluoro-phenyl)-2-methyl-thiazol-4-yl)-1-((S)-2-(5-phenyl-(1,3,4)oxadiazol-2-ylmethyl)-pyrrolidin-1-yl)-methanone) binding, bottom denotes the nonspecific [^3H]-(1-(5-(2-fluoro-phenyl)-2-methyl-thiazol-4-yl)-1-((S)-2-(5-phenyl-(1,3,4)oxadiazol-2-ylmethyl)-pyrrolidin-1-yl)-methanone) binding. Graphpad Prism calculates Ki value from IC50 and the pre-determined Kd values for [^3H]-(1-(5-(2-fluoro-phenyl)-2-methyl-thiazol-4-yl)-1-((S)-2-(5-phenyl-(1,3,4)oxadiazol-2-ylmethyl)-pyrrolidin-1-yl)-methanone) and [3H]-EMPA. The Ki for each compound is then uploaded into 3DX. Each run comprises individual compounds in triplicate.
Rat and Human Orexin 1 Receptor Radioligand Binding Studies
Human Embryonic Kidney 293 cells (HEK293) stably expressing rat orexin 1 receptor (Genebank accession number NM_001525) or Chinese ovary cells (CHO) stably expressing human orexin 1 receptor (Genebank accession number NM_001526) were grown to confluency in DMEM (Hyclone, cat #SH30022), 10% FBS, 1×Pen/Strep, 1× sodium pyruvate, 10 mM HEPES, 600 μg/mL G418 and DMEM/F12 (Gibco, Cat #11039), 10% FBS, 1×Pen/Strep, 600 μg/mL G418 media, respectively on 150 cm^2 tissue culture plates, washed with 5 mM EDTA in PBS (HyClone Dulbecco's Phosphate Buffered Saline 1× with Calcium and Magnesium, Cat #SH30264.01, hereafter referred to simply as PBS) and scraped into 50 ml tubes. After centrifugation (2K×G, 5 min at 4° C.), the supernatant was aspirated and the pellets frozen and stored at −80° C. Cells were resuspended in PBS in the presence of 1 tablet of protease inhibitor cocktail (Roche, Cat. #11836145001) per 50 mL. Each cell pellet from a 15 cm plate was resuspended in 10 mL, stored on ice, and homogenized for 45 sec prior to addition to the reactions. Competition binding experiments in 96 well polypropylene plates were performed using [^3H]-(1-(5-(2-fluoro-phenyl)-2-methyl-thiazol-4-yl)-1-((S)-2-(5-phenyl-(1,3,4)oxadiazol-2-ylmethyl)-pyrrolidin-1-yl)-methanone) (Moraveck Corporation, specific activity=35.3 Ci/mmol), diluted to a 10 nM concentration in PBS (4 nM final). […] The final concentration of DMSO in the reactions is equal to or less than 0.1%. Total and nonspecific binding was determined in the absence and presence of 10 μM almorexant. The total volume of each reaction is 200 μL (20 μL of diluted compounds, 80 μL of [^3H]-(1-(5-(2-fluoro-phenyl)-2-methyl-thiazol-4-yl)-1-((S)-2-(5-phenyl-(1,3,4)oxadiazol-2-ylmethyl)-pyrrolidin-1-yl)-methanone) diluted in PBS and 100 μL of the cell suspension). Reactions were run for 60 min at room temperature and terminated by filtration through GF/C filter plates (PerkinElmer, Cat. #6005174) presoaked in 0.3% polyethylenimine using the cell harvester (PerkinElmer Filtermate). The plates were washed 3 times by aspirating 30 ml PBS through the plates. Plates were dried in 55° C. oven for 60 min, scintillation fluid was added, and the radioactivity was counted on a Topcount (Packard).

By Ki is commonly meant the equilibrium dissociation constant of an inhibitor or competing ligand from its target.

Sequence of human orexin 2 receptor (O43614 whole entry): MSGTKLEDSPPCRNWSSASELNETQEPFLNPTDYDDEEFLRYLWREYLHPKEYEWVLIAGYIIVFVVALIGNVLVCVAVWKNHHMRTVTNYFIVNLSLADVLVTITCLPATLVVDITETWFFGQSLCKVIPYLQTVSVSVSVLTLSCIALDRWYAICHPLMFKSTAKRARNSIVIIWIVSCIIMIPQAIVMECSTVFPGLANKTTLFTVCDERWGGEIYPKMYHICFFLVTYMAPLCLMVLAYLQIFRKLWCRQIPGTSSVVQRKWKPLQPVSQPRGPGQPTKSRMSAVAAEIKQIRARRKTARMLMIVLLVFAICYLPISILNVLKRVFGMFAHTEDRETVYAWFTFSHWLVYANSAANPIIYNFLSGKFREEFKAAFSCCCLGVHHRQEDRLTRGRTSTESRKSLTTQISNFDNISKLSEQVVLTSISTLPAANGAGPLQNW

Consider `CCOc1ccc(C)nc1C(=O)N1CCC[C@@H](Nc2ncc(C(F)(F)F)cn2)[C@@H]1C` (relative stereo) [Example 199, (3-ethoxy-6-methylpyridin-2-yl)((2S*,3R*)-2-methyl-3-((5-(trifluoromethyl)pyrimidin-2-yl)amino)piperidin-1-yl)methanone], for which the inhibitory constant (Ki) came to 2.4 µM at human orexin 2 receptor, 0.154 µM at rat orexin 1 receptor and 0.206 µM at human orexin 1 receptor.
For `C[C@H]1[C@H](Nc2nc3ccccc3o2)CCCN1C(=O)c1cccc(F)c1-c1ncccn1` (relative stereo) [Example 204, ((2S*,3R*)-3-(benzo[d]oxazol-2-ylamino)-2-methylpiperidin-1-yl)(3-fluoro-2-(pyrimidin-2-yl)phenyl)methanone] the same measures were 0.292 µM, 0.014 µM and 0.016 µM.
For `C[C@H]1[C@H](Nc2nc3ccccc3o2)CCCN1C(=O)c1ccc(F)cc1-c1ncccn1` (relative stereo) [Example 206, ((2S*,3R*)-3-(benzo[d]oxazol-2-ylamino)-2-methylpiperidin-1-yl)(4-fluoro-2-(pyrimidin-2-yl)phenyl)methanone], the figures for the inhibition constant (Ki) on human orexin 2 receptor, on rat orexin 1 receptor and at human orexin 1 receptor were 0.564 µM, 0.016 µM and 0.016 µM, respectively.
`C[C@H]1[C@H](Nc2cnc(C(F)(F)F)cn2)CCCN1C(=O)c1ccc(F)cc1-c1ncco1` (relative stereo) [Example 208, (4-fluoro-2-(oxazol-2-yl)phenyl)((2S*,3R*)-2-methyl-3-((5-(trifluoromethyl)pyrazin-2-yl)amino)piperidin-1-yl)methanone]: the inhibition constant Ki on human orexin 2 receptor stood at 1.1 µM; on rat orexin 1 receptor, 0.067 µM; at human orexin 1 receptor, 0.034 µM.
On to `C[C@H]1[C@H](Nc2cnc(C(F)(F)F)cn2)CCCN1C(=O)c1ccc(F)cc1-c1ncccn1` (relative stereo) [Example 209, (4-fluoro-2-(pyrimidin-2-yl)phenyl)((2S*,3R*)-2-methyl-3-((5-(trifluoromethyl)pyrazin-2-yl)amino)piperidin-1-yl)methanone], for which the values for the Ki at human orexin 2 receptor, on rat orexin 1 receptor and at human orexin 1 receptor were 0.944 µM, 0.016 µM and 0.025 µM, respectively.
In the same order, the values of `C[C@H]1[C@H](Nc2ccc(C(F)(F)F)cn2)CCCN1C(=O)c1ncccc1-c1ncccn1` (relative stereo) [Example 265, ((2S*,3R*)-2-methyl-3-((5-(trifluoromethyl)pyridin-2-yl)amino)piperidin-1-yl)(3-(pyrimidin-2-yl)pyridin-2-yl)methanone] are 0.293 µM, 0.016 µM and 0.024 µM.
On to `Cc1cnc(C(=O)N2CCC[C@@H](Nc3ccc(C(F)(F)F)cn3)[C@@H]2C)c(-n2nccn2)c1` [Example 26, ((2S,3R)-2-methyl-3-((5-(trifluoromethyl)pyridin-2-yl)amino)piperidin-1-yl)(5-methyl-3-(2H-1,2,3-triazol-2-yl)pyridin-2-yl)methanone], for which the values for the Ki on human orexin 2 receptor, on rat orexin 1 receptor and on human orexin 1 receptor were 2.37 µM, 0.012 µM and 0.016 µM, respectively.
In the same order, the values of `Cc1cnc(C(=O)N2CCC[C@@H](Nc3ccc(Cl)cn3)[C@@H]2C)c(-c2ncco2)c1` [Example 77, ((2S,3R)-3-((5-chloropyridin-2-yl)amino)-2-methylpiperidin-1-yl)(5-methyl-3-(oxazol-2-yl)pyridin-2-yl)methanone] are 4.23 µM, 0.041 µM and 0.06 µM.
In the same order, the values of `COc1ccc(-n2nccn2)c(C(=O)N2CCC[C@@H](Nc3ncc(C(F)(F)F)cn3)[C@@H]2C)c1` [Example 89, (5-methoxy-2-(2H-1,2,3-triazol-2-yl)phenyl)((2S,3R)-2-methyl-3-((5-(trifluoromethyl)pyrimidin-2-yl)amino)piperidin-1-yl)methanone] are 0.422 µM, 0.011 µM and 0.009 µM.
Consider `COc1ccc(C(=O)N2CCC[C@@H](Nc3ccc(C(F)(F)F)cn3)[C@@H]2C)c(-n2nccn2)c1` [Example 97, (4-methoxy-2-(2H-1,2,3-triazol-2-yl)phenyl)((2S,3R)-2-methyl-3-((5-(trifluoromethyl)pyridin-2-yl)amino)piperidin-1-yl)methanone], for which the results for the Ki on human orexin 2 receptor, on rat orexin 1 receptor and at human orexin 1 receptor were 4.9 µM, 0.033 µM and 0.034 µM, respectively.
Turning to `Cc1cnc(C(=O)N2CCC[C@@H](Oc3cnc(C(F)(F)F)cn3)[C@@H]2C)c(-n2nccn2)c1` [Example 105, ((2S,3R)-2-methyl-3-((5-(trifluoromethyl)pyrazin-2-yl)oxy)piperidin-1-yl)(5-methyl-3-(2H-1,2,3-triazol-2-yl)pyridin-2-yl)methanone], the results for the inhibition constant Ki at human orexin 2 receptor, at rat orexin 1 receptor and on human orexin 1 receptor were over 10 µM, 0.192 µM and 0.269 µM, respectively.
With `C[C@H]1[C@H](Oc2cnc(C(F)(F)F)cn2)CCCN1C(=O)c1ccccc1-n1nccn1` [Example 106, (2-(2H-1,2,3-triazol-2-yl)phenyl)((2S,3R)-2-methyl-3-((5-(trifluoromethyl)pyrazin-2-yl)oxy)piperidin-1-yl)methanone], the Ki at human orexin 2 receptor came out at 0.912 µM; on rat orexin 1 receptor, 0.044 µM; on human orexin 1 receptor, 0.045 µM.
In the same order, the values of `Cc1ccc(-n2nccn2)c(C(=O)N2CCC[C@@H](Oc3cnc(C(F)(F)F)cn3)[C@@H]2C)n1` [Example 107, ((2S,3R)-2-methyl-3-((5-(trifluoromethyl)pyrazin-2-yl)oxy)piperidin-1-yl)(6-methyl-3-(2H-1,2,3-triazol-2-yl)pyridin-2-yl)methanone] are 2.3 µM, 0.034 µM and 0.038 µM.
For `C[C@H]1[C@H](Oc2ccc(C(F)(F)F)cn2)CCCN1C(=O)c1ccccc1-n1nccn1` [Example 110, (2-(2H-1,2,3-triazol-2-yl)phenyl)((2S,3R)-2-methyl-3-((5-(trifluoromethyl)pyridin-2-yl)oxy)piperidin-1-yl)methanone] the same measures were 0.246 µM, 0.012 µM and 0.011 µM.
In the case of `Cc1cnc(C(=O)N2CCC[C@@H](Oc3ccc(C(F)(F)F)cn3)[C@@H]2C)c(-n2nccn2)c1` [Example 111, ((2S,3R)-2-methyl-3-((5-(trifluoromethyl)pyridin-2-yl)oxy)piperidin-1-yl)(5-methyl-3-(2H-1,2,3-triazol-2-yl)pyridin-2-yl)methanone], the Ki is 5.1 µM at human orexin 2 receptor, 0.022 µM on rat orexin 1 receptor and 0.031 µM on human orexin 1 receptor.
